This is an account of results in US8507523B2, “Therapeutic tetrahydroisoquinoline-based compositions for cancer therapy” (priority 2006, dated 2013).

In data set [1] the test system is C6 glioma. Nature of the data set: Dose response (percent survival) in C6 glioma cell cultures. The format is cell-based, rat. From the text: (§1) 6,7-Dimethoxy-1-[4-(4-methoxypyridin-3-yl)benzyl]-1,2,3,4-tetrahydroisoquinolinehydrochloride (EDL-291) was synthesized as described herein in the laboratory of Dr. Duane D. Miller at The University of Tennessee Health Science Center. Briefly, the primary cultures of astrocytes and cultures of C6 glioma cell lines were handled identically with respect to treatment concentrations and manipulations of cells for the screening assays. The cells were trypsinized and transferred to 96-well plates at a cell density of 10^3 cells/mm^2 in the wells. The cells were grown overnight in 100 μL of 10% FCS BME in a 37° C. incubator containing a humid, 5% CO2 atmosphere.
(§2) EDL291 was dissolved completely to make a […] stock solution and diluted to produce a series of concentrations. A 20 μL aliquot of these initial solutions was added to 180 μl of 2% FCS BME to produce the test concentration. The vehicle solution was tested as a control. […] Immediately before treatment, the 10% FCS BME was removed from the cells and replaced with the 180 μl of the treatment medium. The cultured cells (normal primary cultures of rat brain astrocytes or C6 glioma purchased from ATCC) were incubated with test compound for 4 days. The cells were fixed with 4% paraformaldehyde, stained with 0.1% Cresylecth violet stain, and quantitated. The screening data was collected as four wells for each dose per compound (screening) or concentration (dose response curve). Also, the average growth of 8 wells with no treatment was used as a negative control for each plate (100% growth). The cells for dose response curves were grown in the same media and were handled in a similar manner as in the screening assays.
(§3) The cytotoxic character of each compound was reported as the percent survival, calculated as the average A560 for treated cells divided by A560 of untreated (100% control) cells, and expressed as a percentage. Values less than 100% indicate a cytostatic or cytotoxic effect. Dose response curves and EC50 values were attained via plots of percent survival vs. concentration.

Data set [2] has as its system normal primary cultures of rat brain astrocytes. In words: Dose response (percent survival) in primary cultures of astrocytes. In kind it is cell-based. The following applies: 4 days of treatment.
Description: as §1, §2, §3

The nature of data set [3]: Acute toxicity observation in treated glioma-bearing rats. In kind it is in vivo, Sprague-Dawley rats. The following applies: 40 mg/kg. Here is the method:
The tumor was allowed to grow for three days prior to treatment. EDL-291 (40 mg/kg) was delivered by IP delivery twice a day for the next seven days. Animals were placed into one of two treatment groups: 9 rats received carrier solution only (Hanks Balanced Salt Solution, HBSS plus 10% DMSO) and 9 rats received EDL-291. During the treatment period the animal were monitored daily. After a treating the animals for 7 days, the rats were deeply anesthetized with 26 mg/kg Rompium and 174 mg/kg Ketalar and perfused through the heart with saline followed by 4% paraformaldehyde in phosphate buffer (pH 7.4). Brains were removed from the skull, post-fixed for 24 hours and then placed in a 30% sucrose solution. The brains were sectioned at […] with a freezing microtome. One 1-in-5 series of sections was mounted on glass slides and stained by the Nissl method.
Approximately three days after tumor cell implantation, animals began receiving intraperitoneal administration of EDL-291 (40 mg/kg) twice daily for the next seven days. Animals were placed into one of two treatment groups: 9 rats received vehicle only (10% DMSO in Hanks Balanced Salt Solution, HBSS) and 9 rats received EDL-291. Animals were monitored daily during the treatment period. […]

The test system of data set [4] is C6 glioma. Nature of the data set: C6 glioma transplanted into rat brain, tumor size determination. In kind it is in vivo, Sprague-Dawley rats. Here is the method:
For studies in which C6 glioma are transplanted into the brain, a C6 cell line produced in the inventors' laboratory that caries the β-galactosidase marker was used. The cell line was transfected with the pCMVβ expression vector (Clontech, Palo Alto, Calif.) and stable transfectants were selected using G418 (GibcoBRL). The glioma cells were plated at a density of 5×10^3 cells/cm^2 into T-75 culture flasks. The cells were allowed to grow to confluence in BME with 10% fetal calf serum. On the day before transplantation, the cultures were rinsed with Hank's Balanced Salt Solution placed in BME with 10% rat serum (Equitech-Bio Inc., Kerrville, Tex.).
A total of 18 male Sprague-Dawley rats (250-350 g) were deeply anesthetized with (13 mg/kg, Rompom and 87 mg/kg, Ketalar) for the surgery. The rats were monitored during the surgery to insure that they remained deeply anesthetized and unresponsive to pain. […]
The tumor was allowed to grow for three days prior to treatment. […] During the treatment period the animal were monitored daily. […]
The size of tumors in each animal was measured. […] The digital images were analyzed to define the volume of the tumor using the program NIH image. […] The codes were released and the data compiled and analyzed using a Student t test. […]

The term EC50 denotes the concentration that produces a half-maximal response.

Read-outs that look alike come from different tables or passages of the source.

As for `COc1cc2c(cc1OC)C(Cc1ccc(-c3cnccc3OC)cc1)NCC2.Cl` (stereo not shown) [EDL-291, 6,7-Dimethoxy-1-[4-(4-methoxypyridin-3-yl)benzyl]-1,2,3,4-tetrahydroisoquinolinehydrochloride], the “fold difference in effect concentration, C6 glioma relative to normal brain astrocytes” value in the data set on C6 glioma [1] (EC50 astrocytes vs EC50 C6 glioma) stood at 36 fold. For the same compound, the half-maximal effective concentration (EC50) came to 0.6 µM with C6 glioma [1] (Rattus norvegicus, C6 glioma, 96 h, C6 glioma cells, 4 days of treatment, percent survival); 26 µM in data set [2] (read-out: EC50 μM Astrocyte); 22.8 µM in data set [2] (Rattus norvegicus, Astrocyte, 96 h). In data set [3], the acute toxicity entry was “no evidence of acute toxicity”. In addition, the “tumors smaller on average than in control rats” value in the data set with C6 glioma [4] (40 mg/Kg BID IP for 7 days, n=9, p=0.02 (student t test)) is 32%. Besides, the “tumor size compared to vehicle control animals (in words)” value in the data set on C6 glioma [4] (40 mg/kg IP twice daily for 7 days) was “statistically significant reduction in tumor size”.
